Bridge positions count the residues as written; N and C are the ends. Square brackets hold non-standard residues; d marks the D form. Peptide text beside a SMILES is read from it. * marks the point of attachment. βGlcA(1-O-hexadecyl) = CCCCCCCCCCCCCCCCO[C@@H]1O[C@H](C(=O)*)[C@@H](O)[C@H](O)[C@H]1O; Aib = CC(C)(N)C(=O)O
Experiments:
db/db mice = test: Glucose-lowering activity in db/db mice; assay type: in vivo; details: for time for which elevated blood glucose level was reduced to the normal range: 250 nmol/kg subcutaneously at t=0 and 7 hr (FIG. 9)
Experimental: The 60 female db/db B6BKS (D) Leprdb/J (strain 000697) mice for this study were about 8-9 weeks old at arrival (Jackson Laboratory, Bar Harbor, Me.). […] One group of 8 female mice served as the vehicle control and received the vehicle, 0.2% BSA in saline, pH 7.4. One additional group of 8 female mice received the positive-control compound, liraglutide, at a dose level of 50 nmoles/kg. The test compounds, vehicle and positive-control compound were subcutaneously injected at a dose volume of 6 mL/kg on day 1 at about 0, 7 and 24 hours.
Clinical observations were conducted at receipt, prior to randomization, and daily from days 1 to 5. Body weights were measured and recorded at receipt, prior to randomization, and daily from days 1 to 5. Food consumption was measured and recorded daily from days 1 to 5. Blood samples for glucose analysis were collected pre-study (day −3) and at 0, 1, 2, 4, 8, 10, 24, 48, 72 and 96 hours following the first dose on day 1. At study termination all animals were euthanized, and the carcasses were discarded without further evaluation.

human GLP-1 receptor = target: T1, human GLP-1 receptor (Homo sapiens, UniProt P43220); test: DiscoveRx LeadHunter cellular assay, cAMP stimulation, GLP-1 receptor in CHO cells; assay type: cell-based; details: human GLP-1 receptor in CHO cells (DiscoveRx); read-out: EC50 cAMP GLP-1 R
T1 construct: host or cells: CHO cells
Experimental: (§1) A further series of cellular assays was carried out with standard cellular assays (DiscoveRx, LeadHunter assays) using readout of cAMP stimulation or arrestin activation. Compounds were weighed precisely in an amount of about 1 mg and shipped to DiscoveRx for dilution and assay.

human glucagon receptor = target: T2, human glucagon receptor (Homo sapiens, UniProt P47871); test: DiscoveRx LeadHunter cellular assay, cAMP stimulation, glucagon receptor in CHO cells; assay type: cell-based
T2 construct: host or cells: CHO cells
T2 sequence (P47871 26-477): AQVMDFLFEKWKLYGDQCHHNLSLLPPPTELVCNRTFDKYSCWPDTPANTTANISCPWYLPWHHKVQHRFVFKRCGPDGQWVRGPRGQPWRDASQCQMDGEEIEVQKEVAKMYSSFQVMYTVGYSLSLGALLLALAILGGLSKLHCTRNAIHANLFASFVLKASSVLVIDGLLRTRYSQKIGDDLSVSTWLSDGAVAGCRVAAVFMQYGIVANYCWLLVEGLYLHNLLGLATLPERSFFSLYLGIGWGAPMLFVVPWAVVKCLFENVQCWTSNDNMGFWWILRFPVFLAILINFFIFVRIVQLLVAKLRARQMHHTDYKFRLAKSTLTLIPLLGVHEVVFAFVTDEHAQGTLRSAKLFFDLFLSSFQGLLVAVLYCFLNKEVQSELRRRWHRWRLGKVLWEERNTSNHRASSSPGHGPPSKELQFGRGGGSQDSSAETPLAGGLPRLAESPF
Experimental: as §1

T1 sequence (P43220 24-463): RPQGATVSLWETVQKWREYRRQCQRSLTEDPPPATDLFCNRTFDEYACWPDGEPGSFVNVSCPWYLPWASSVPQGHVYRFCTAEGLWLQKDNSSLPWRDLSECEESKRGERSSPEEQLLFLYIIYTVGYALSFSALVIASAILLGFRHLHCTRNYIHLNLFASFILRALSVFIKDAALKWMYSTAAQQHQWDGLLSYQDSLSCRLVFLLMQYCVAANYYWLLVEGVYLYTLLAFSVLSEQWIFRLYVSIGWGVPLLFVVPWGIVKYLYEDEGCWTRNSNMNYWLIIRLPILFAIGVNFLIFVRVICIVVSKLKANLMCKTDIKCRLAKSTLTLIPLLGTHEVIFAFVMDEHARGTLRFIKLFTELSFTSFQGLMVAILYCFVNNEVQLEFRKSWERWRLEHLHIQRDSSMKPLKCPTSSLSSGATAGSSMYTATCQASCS

CCCCCCCCO[C@@H]1O[C@H](C(=O)NCCCC[C@H](NC(=O)[C@@H](NC(=O)[C@H](Cc2ccccc2)NC(=O)[C@H](CCC(=O)O)NC(=O)[C@@H]2CCCCNC(=O)CC[C@H](NC(=O)[C@H](CC(=O)O)NC(=O)[C@H](CC(C)C)NC(=O)[C@H](Cc3ccc(O)cc3)NC(=O)[C@H](CCCCN)NC(=O)[C@H](CO)NC(=O)[C@H](Cc3ccc(O)cc3)NC(=O)[C@H](CC(=O)O)NC(=O)[C@H](CO)NC(=O)[C@@H](NC(=O)[C@H](Cc3ccccc3)NC(=O)[C@@H](NC(=O)CNC(=O)[C@H](CCC(N)=O)NC(=O)C(C)(C)NC(=O)[C@@H](N)Cc3c[nH]cn3)[C@@H](C)O)[C@@H](C)O)C(=O)N[C@@H](CCC(N)=O)C(=O)N[C@@H](C)C(=O)N[C@@H](C)C(=O)N2)[C@@H](C)CC)C(=O)N[C@@H](Cc2c[nH]c3ccccc23)C(=O)N[C@@H](CC(C)C)C(=O)N[C@@H](CC(C)C)C(=O)N[C@@H](CCC(N)=O)C(=O)N[C@H](C(N)=O)[C@@H](C)O)[C@@H](O)[C@H](O)[C@H]1O [EU-A992]
time for which elevated blood glucose level was reduced to the normal range (db/db mice; db/db mice): around 72 hr | db/db Mice-Mean Blood Glucose (mg/dL) 0 hr (db/db mice; dose 250 nmole/kg sc): 405 mg/dL | db/db Mice-Mean Blood Glucose (mg/dL) 10 hr (db/db mice; dose 250 nmole/kg sc): 104 mg/dL | db/db Mice-Mean Blood Glucose (mg/dL) 24 hr (db/db mice; dose 250 nmole/kg sc): 112 mg/dL | db/db Mice-Mean Blood Glucose (mg/dL) 48 hr (db/db mice; dose 250 nmole/kg sc): 130 mg/dL

CCCCCCCCCCCCO[C@@H]1O[C@H](C(=O)NCCCC[C@H](NC(=O)[C@@H](NC(=O)[C@H](Cc2ccccc2)NC(=O)[C@H](CCC(=O)O)NC(=O)[C@@H]2CCCCNC(=O)CC[C@H](NC(=O)[C@H](CC(=O)O)NC(=O)[C@H](CC(C)C)NC(=O)[C@H](Cc3ccc(O)cc3)NC(=O)[C@H](CCCCN)NC(=O)[C@H](CO)NC(=O)[C@H](Cc3ccc(O)cc3)NC(=O)[C@H](CC(=O)O)NC(=O)[C@H](CO)NC(=O)[C@@H](NC(=O)[C@H](Cc3ccccc3)NC(=O)[C@@H](NC(=O)CNC(=O)[C@H](CCC(N)=O)NC(=O)C(C)(C)NC(=O)[C@@H](N)Cc3c[nH]cn3)[C@@H](C)O)[C@@H](C)O)C(=O)N[C@@H](CCC(N)=O)C(=O)N[C@@H](C)C(=O)N[C@@H](C)C(=O)N2)[C@@H](C)CC)C(=O)N[C@@H](Cc2c[nH]c3ccccc23)C(=O)N[C@@H](CC(C)C)C(=O)N[C@@H](CC(C)C)C(=O)N[C@@H](CCC(N)=O)C(=O)N[C@H](C(N)=O)[C@@H](C)O)[C@@H](O)[C@H](O)[C@H]1O [EU-A993]
db/db Mice-Mean Blood Glucose (mg/dL) 0 hr (db/db mice; dose 250 nmole/kg sc): 503 mg/dL | db/db Mice-Mean Blood Glucose (mg/dL) 10 hr (db/db mice; dose 250 nmole/kg sc): 305 mg/dL | db/db Mice-Mean Blood Glucose (mg/dL) 24 hr (db/db mice; dose 250 nmole/kg sc): 324 mg/dL | db/db Mice-Mean Blood Glucose (mg/dL) 48 hr (db/db mice; dose 250 nmole/kg sc): 426 mg/dL

CCCCCCCCCCCCCCO[C@@H]1O[C@H](C(=O)NCCCC[C@H](NC(=O)[C@@H](NC(=O)[C@H](Cc2ccccc2)NC(=O)[C@H](CCC(=O)O)NC(=O)[C@@H]2CCCCNC(=O)CC[C@H](NC(=O)[C@H](CC(=O)O)NC(=O)[C@H](CC(C)C)NC(=O)[C@H](Cc3ccc(O)cc3)NC(=O)[C@H](CCCCN)NC(=O)[C@H](CO)NC(=O)[C@H](Cc3ccc(O)cc3)NC(=O)[C@H](CC(=O)O)NC(=O)[C@H](CO)NC(=O)[C@@H](NC(=O)[C@H](Cc3ccccc3)NC(=O)[C@@H](NC(=O)CNC(=O)[C@H](CCC(N)=O)NC(=O)C(C)(C)NC(=O)[C@@H](N)Cc3c[nH]cn3)[C@@H](C)O)[C@@H](C)O)C(=O)N[C@@H](CCC(N)=O)C(=O)N[C@@H](C)C(=O)N[C@@H](C)C(=O)N2)[C@@H](C)CC)C(=O)N[C@@H](Cc2c[nH]c3ccccc23)C(=O)N[C@@H](CC(C)C)C(=O)N[C@@H](CC(C)C)C(=O)N[C@@H](CCC(N)=O)C(=O)N[C@H](C(N)=O)[C@@H](C)O)[C@@H](O)[C@H](O)[C@H]1O [EU-A994]
body weight changes versus vehicle (db/db mice; db/db mice, high-dose (300 nmoles/kg) sc at 0, 7 and 24 hours, days 2 and 3): Significant body weight changes versus vehicle | glucose levels versus vehicle (db/db mice; db/db mice, high-dose (300 nmoles/kg), at 10 and 24 hr): significantly different from vehicle | food consumption versus liraglutide (db/db mice; db/db mice, high-dose (300 nmoles/kg), day 1): significantly different from liraglutide | db/db Mice-Mean Blood Glucose (mg/dL) 0 hr (db/db mice; dose 300 nmole/kg sc): 554 mg/dL | db/db Mice-Mean Blood Glucose (mg/dL) 10 hr (db/db mice; dose 300 nmole/kg sc): 242 mg/dL | db/db Mice-Mean Blood Glucose (mg/dL) 24 hr (db/db mice; dose 300 nmole/kg sc): 209 mg/dL | db/db Mice-Mean Blood Glucose (mg/dL) 48 hr (db/db mice; dose 300 nmole/kg sc): 385 mg/dL

CCCCCCCCCCCCO[C@@H]1O[C@H](CO[C@H]2O[C@H](C(=O)NCCCC[C@H](NC(=O)[C@@H](NC(=O)[C@H](Cc3ccccc3)NC(=O)[C@H](CCC(=O)O)NC(=O)[C@@H]3CCCCNC(=O)CC[C@H](NC(=O)[C@H](CC(=O)O)NC(=O)[C@H](CC(C)C)NC(=O)[C@H](Cc4ccc(O)cc4)NC(=O)[C@H](CCCCN)NC(=O)[C@H](CO)NC(=O)[C@H](Cc4ccc(O)cc4)NC(=O)[C@H](CC(=O)O)NC(=O)[C@H](CO)NC(=O)[C@@H](NC(=O)[C@H](Cc4ccccc4)NC(=O)[C@@H](NC(=O)CNC(=O)[C@H](CCC(N)=O)NC(=O)C(C)(C)NC(=O)[C@@H](N)Cc4c[nH]cn4)[C@@H](C)O)[C@@H](C)O)C(=O)N[C@@H](CCC(N)=O)C(=O)N[C@@H](C)C(=O)N[C@@H](C)C(=O)N3)[C@@H](C)CC)C(=O)N[C@@H](Cc3c[nH]c4ccccc34)C(=O)N[C@@H](CC(C)C)C(=O)N[C@@H](CC(C)C)C(=O)N[C@@H](CCC(N)=O)C(=O)N[C@H](C(N)=O)[C@@H](C)O)[C@H](O)[C@H](O)[C@H]2O)[C@@H](O)[C@H](O)[C@H]1O [EU-A1023]
db/db Mice-Mean Blood Glucose (mg/dL) 0 hr (db/db mice; dose 50 nmole/kg sc): 507 mg/dL | db/db Mice-Mean Blood Glucose (mg/dL) 10 hr (db/db mice; dose 50 nmole/kg sc): 310 mg/dL | db/db Mice-Mean Blood Glucose (mg/dL) 24 hr (db/db mice; dose 50 nmole/kg sc): 355 mg/dL | db/db Mice-Mean Blood Glucose (mg/dL) 48 hr (db/db mice; dose 50 nmole/kg sc): 375 mg/dL | db/db Mice-Mean Blood Glucose (mg/dL) 0 hr (db/db mice; dose 250 nmole/kg sc): 508 mg/dL | db/db Mice-Mean Blood Glucose (mg/dL) 10 hr (db/db mice; dose 250 nmole/kg sc): 264 mg/dL | db/db Mice-Mean Blood Glucose (mg/dL) 24 hr (db/db mice; dose 250 nmole/kg sc): 194 mg/dL | db/db Mice-Mean Blood Glucose (mg/dL) 48 hr (db/db mice; dose 250 nmole/kg sc): 375 mg/dL

CCCCCCCCCCO[C@@H]1O[C@H](C(=O)NCCCC[C@H](NC(=O)[C@@H](NC(=O)[C@H](Cc2ccccc2)NC(=O)[C@H](CCC(=O)O)NC(=O)[C@@H]2CCCCNC(=O)CC[C@H](NC(=O)[C@H](CC(=O)O)NC(=O)[C@H](CC(C)C)NC(=O)[C@H](Cc3ccc(O)cc3)NC(=O)[C@H](CCCCN)NC(=O)[C@H](CO)NC(=O)[C@H](Cc3ccc(O)cc3)NC(=O)[C@H](CC(=O)O)NC(=O)[C@H](CO)NC(=O)[C@@H](NC(=O)[C@H](Cc3ccccc3)NC(=O)[C@@H](NC(=O)CNC(=O)[C@H](CCC(N)=O)NC(=O)C(C)(C)NC(=O)[C@@H](N)Cc3c[nH]cn3)[C@@H](C)O)[C@@H](C)O)C(=O)N[C@@H](CCC(N)=O)C(=O)N[C@@H](C)C(=O)N[C@@H](C)C(=O)N2)[C@@H](C)CC)C(=O)N[C@@H](Cc2c[nH]c3ccccc23)C(=O)N[C@@H](CC(C)C)C(=O)N[C@@H](CC(C)C)C(=O)N[C@@H](CCC(N)=O)C(=O)N[C@H](C(N)=O)[C@@H](C)O)[C@@H](O)[C@H](O)[C@H]1O [EU-A1167]
time for which elevated blood glucose level was reduced to the normal range (db/db mice; db/db mice): around 72 hr | db/db Mice-Mean Blood Glucose (mg/dL) 0 hr (db/db mice; dose 250 nmole/kg sc): 379 mg/dL | db/db Mice-Mean Blood Glucose (mg/dL) 10 hr (db/db mice; dose 250 nmole/kg sc): 171 mg/dL | db/db Mice-Mean Blood Glucose (mg/dL) 24 hr (db/db mice; dose 250 nmole/kg sc): 117 mg/dL | db/db Mice-Mean Blood Glucose (mg/dL) 48 hr (db/db mice; dose 250 nmole/kg sc): 113 mg/dL

CCCCCCCCCCCCCCCCO[C@@H]1O[C@H](C(=O)NCCCC[C@H](NC(=O)[C@H](C)NC(=O)[C@H](C)NC(=O)[C@H](CCC(N)=O)NC(=O)[C@H](CO)NC(=O)[C@H](CC(=O)O)NC(=O)[C@@H]2CCCCNC(=O)CC[C@H](NC(=O)[C@H](CC(=O)O)NC(=O)[C@H](CO)NC(=O)[C@@H](NC(=O)[C@H](Cc3ccccc3)NC(=O)[C@@H](NC(=O)CNC(=O)[C@H](CCC(N)=O)NC(=O)C(C)(C)NC(=O)[C@@H](N)Cc3c[nH]cn3)[C@@H](C)O)[C@@H](C)O)C(=O)N[C@@H](CO)C(=O)N[C@@H](CCCCN)C(=O)N[C@@H](Cc3ccc(O)cc3)C(=O)N2)C(=O)N[C@@H](CCC(=O)O)C(=O)N[C@@H](Cc2ccccc2)C(=O)N[C@H](C(=O)N[C@@H](CCC(=O)O)C(=O)N[C@@H](Cc2c[nH]c3ccccc23)C(=O)N[C@@H](CC(C)C)C(=O)N[C@@H](CC(C)C)C(=O)N[C@@H](CCC(N)=O)C(=O)N[C@H](C(N)=O)[C@@H](C)O)[C@@H](C)CC)[C@@H](O)[C@H](O)[C@H]1O [EU-A1848] (H-H[Aib]QGTFTSDESKYKDSQAAK(βGlcA(1-O-hexadecyl))EFIEWLLQT-NH2; lactam 10-14; N-terminus assumed)
EC50 (human GLP-1 receptor): 0.06 nM | EC50 (human glucagon receptor): 3.06 nM
